“Also recorded” adds a separate entry of the source.
Assays:
Assay type in all cases: cell-based
gp130 pY814 = biological target: T1, gp130 pY814 (Sus scrofa, UniProt A0A4X1SIN4); test: Western blot of gp130 pY814 in OSM-stimulated pig articular chondrocytes; details: with OSM, 4 and 24 hours
T1 construct: endogenous in cells; host or cells: pig articular chondrocytes (Yucatan minipig)
Procedure: (§1) For standard western blot, treated and non-treated cells were lysed in RIPA Lysis and Extraction Buffer (Pierce, Rockford, IL) containing protease inhibitors (Pierce) followed by sonication with a 15-second pulse at a power output of 2 using the VirSonic 100 (SP Industries Company, Warminster, PA). Protein concentrations were determined by BCA protein assay (Pierce). Proteins were resolved with SDS-PAGE utilizing 4-15% Mini-PROTEAN TGX Precast Gels and transferred to Trans-Blot Turbo Transfer Packs with a 0.2-μm pore-size nitrocellulose membrane. The SDS-PAGE running buffer, 4-15% Mini-PROTEAN TGX Precast Gels, Trans-Blot Turbo Transfer Packs with a 0.2-μm pore-size nitrocellulose membrane was purchased from Biorad (Hercules, CA). Nitrocellulose membranes were blocked in 5% nonfat milk in 0.05% (v/v) Tween 20 (PBST) (Corning, Manassas, VA). Membranes were then incubated with primary antibodies p-gp130 Y814 (Evseenko lab, AbClonal), p-AKT (cat #4060, Cell Signaling), p-ERK 1/2 (cat #9106, Cell Signaling), p-Y416-SRC (cat #1246F, Novus Biologicals), p-gp130 (cat #1453R, Bioss USA) and p-NFκBp65 (cat #8242, Cell Signaling), and/or YAP1 (cat #4912, Cell Signaling). Histone H3 (cat #9515, Cell Signaling) was used as loading control. […] Quantification of blots was performed using ImageJ 1.44 followed by Prism9 for analysis.

gp130 and pSRC = test: Co-immunoprecipitation of complex formation between gp130 and pSRC in pig articular chondrocytes; details: pig articular chondrocytes with or without OSM, 4 and 24 hours
Procedure: IP Western, SDS-PAGE and Western blot analysis. For transfections of gp130 wild type (WT) (InVivoGen) and gp130 mutant plasmids (Thermo Scientific), cells were plated 24 h prior to transfection to produce monolayers that were 60% confluent and these were transfected by using Turbo DNAfectin 3000 (cat #G3000, Lambda Biotech) according to the manufacturer's protocol. 72h after transfection, cells were maintained in DMEM (10% FBS, 1% PSA) and were either left untreated or were stimulated with IL-6 (10 ng/mL) and/or OSM (10 ng/mL) for 24 h before cell harvest and protein extraction. For immunoprecipitation assays, cell lysates were incubated with Protein G Agarose (cat #20398, Pierce) and anti-Flag antibody (cat #2368, Cell Signaling) at 4° C. overnight. The immune complexes were sedimented, washed and separated by SDS-PAGE (see below) and further analyzed by Western blot using p-SRC (pY416-SRC) (cat #1246F, Novus Biologicals) or NEMO (cat #18474-1-AP, Proteintech) antibodies and normalized to gp130 (cat #bs-1459R, Bioss) or total SRC (cat #2123, Cell Signaling). For R805 treatment, the immune complexes were sedimented, washed and separated by SDS-PAGE and further analyzed by Western blot using OSMR (cat #ab85575, Abcam), LIFR (Santa cat #515337, Cruz Biotechnology) or p-SRC (pY416-SRC) (Novus Biologicals, cat #1246F). Histone H3 (cat #9715, Cell Signaling), gp130 (cat #bs-1459R, Bioss), total SRC (cat #2123, Cell Signaling) or Flag antibody (cat #14739, Cell Signaling) were used as loading controls.
The studies delineate that gp130 Y814 regulates SRC downstream signaling; since SRC is known to associate with gp130, it was hypothesized that gp130 and SRC are capable of physically interacting on Y814 and hindering this interaction will prevent SRC from signaling. In order to impede this interaction, experiments were performed using an innovative peptide library screen with short and overlapping peptides mimicking the motif of gp130 around Y814 that were individually tested for pSRC downregulation; these peptides ranged from 4-15 amino acids. The peptides contained a protein sequence stretch of consecutive amino acids surrounding gp130 Y814 residue. To test their efficacy, pig articular chondrocytes were stimulated with or without OSM in presence or absence of the peptides followed by co-immunoprecipitation to determine interaction and western blot detecting pSRC activity. […] Due to sequence specificity, the peptide is capable of discriminating among other gp130 regions serving as a competitive inhibitor.

[1] = system: ADAMTS4, ADAMTS5 and MMP13 transcription; test: qPCR of matrix-degrading genes in OSM-stimulated pig articular chondrocytes; details: 48 hours
Procedure: Quantitative Real-Time PCR. Power SYBR Green (Applied Biosystems) RT-PCR amplification and detection was performed using an Applied Biosystems Step One Plus Real-Time PCR machine. The comparative Ct method for relative quantification (2-ΔΔCt) was used to quantitate gene expression. TBP (TATA-box binding protein) was used for gene normalization and expressed relative to a calibrator (sample in each set with lowest expression). Q-PCR for was conducted using the following primers: human: TBP forward, 5′ GATGGACGTTCGGTTTAGG 3′ (SEQ ID NO:28); TBP reverse, 5′ AGCAGCACAGTACGAGCAA 3′ (SEQ ID NO:29), MMP13 forward, 5′ […] 3′(SEQ ID NO:30); MMP13 reverse, 5′ GAACCCCGCATCTTGGCTT 3′ (SEQ ID NO:31), ADAMTS5 forward 5′ […] 3′ (SEQ ID NO:32); ADAMTS5 reverse, 5′ […] 3′ (SEQ ID NO:33), ADAMTS4 forward 5′ […] 3′ (SEQ ID NO:34); ADAMTS4 reverse, 5′ […] 3′ (SEQ ID NO:35), Collagen II forward, 5′ […] 3′ (SEQ ID NO:36); Collagen II reverse 5′ […] 3′ (SEQ ID NO:37); Aggrecan forward, 5′ AGGCAGCGTGATCCTTACC 3′ (SEQ ID NO:38); Aggrecan reverse, 5′ […] 3′ (SEQ ID NO:39). Cells were treated with 10 ng/mL OSM and/or with 5 μM SRC (SU6656) inhibitor, 10 ng/mL OSM and/or 50 ng/mL WT/F814 plasmids; 10 ng/mL OSM and/or 100 or 300 ug/mL of peptide QQpYF (Evseenko lab, Thermo Scientific); 10 uM R805 and/or 10 ng/mL OSM.

pSTAT3 = test: Western blot of pSTAT3 in LIF-treated pig articular chondrocytes; details: 4 and 24 hours
Procedure: as §1, with “VA).” for “VA). Membranes were then incubated with primary antibodies p-gp130 Y814 (Evseenko lab, AbClonal), p-AKT (cat #4060, Cell Signaling), p-ERK 1/2 (cat #9106, Cell Signaling), p-Y416-SRC (cat #1246F, Novus Biologicals), p-gp130 (cat #1453R, Bioss USA) and p-NFκBp65 (cat #8242, Cell Signaling), and/or YAP1 (cat #4912, Cell Signaling). Histone H3 (cat #9515, Cell Signaling) was used as loading control.”
Experiments were performed to determine whether R805 is inclined to shift the signaling outputs downstream of gp130 promoting differential regulation similar to genetic ablation of Y814. As a readout, protein levels of phosphorylated SRC, MAPK (ERK 1/2) and NF-κB were measured in response to OSM while STAT3 and YAP1 levels were evaluated in response to LIF.

T1 sequence (A0A4X1SIN4 23-917): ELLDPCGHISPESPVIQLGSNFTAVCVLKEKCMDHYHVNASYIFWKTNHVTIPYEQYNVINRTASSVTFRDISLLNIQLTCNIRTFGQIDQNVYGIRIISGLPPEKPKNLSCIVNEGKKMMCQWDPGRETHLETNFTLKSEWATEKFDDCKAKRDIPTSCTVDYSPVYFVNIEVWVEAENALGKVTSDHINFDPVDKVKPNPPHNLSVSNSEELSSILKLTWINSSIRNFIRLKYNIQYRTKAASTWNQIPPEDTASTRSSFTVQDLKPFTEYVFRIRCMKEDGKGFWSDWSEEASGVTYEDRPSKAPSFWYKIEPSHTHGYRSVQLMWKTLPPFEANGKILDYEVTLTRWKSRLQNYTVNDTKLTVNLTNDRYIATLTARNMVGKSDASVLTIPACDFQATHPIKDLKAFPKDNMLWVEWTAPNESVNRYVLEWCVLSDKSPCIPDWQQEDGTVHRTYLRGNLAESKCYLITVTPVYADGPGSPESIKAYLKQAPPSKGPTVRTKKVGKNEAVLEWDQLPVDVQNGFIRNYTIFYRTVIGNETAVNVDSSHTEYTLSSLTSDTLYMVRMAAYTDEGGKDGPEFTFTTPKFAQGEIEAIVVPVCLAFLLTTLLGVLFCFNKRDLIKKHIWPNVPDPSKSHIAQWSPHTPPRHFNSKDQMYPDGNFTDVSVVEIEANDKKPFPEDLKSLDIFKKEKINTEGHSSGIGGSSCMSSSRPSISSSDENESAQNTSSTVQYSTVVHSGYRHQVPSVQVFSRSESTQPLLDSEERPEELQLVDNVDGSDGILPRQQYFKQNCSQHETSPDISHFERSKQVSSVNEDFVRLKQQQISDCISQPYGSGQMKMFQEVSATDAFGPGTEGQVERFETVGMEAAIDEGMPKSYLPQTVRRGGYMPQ

Cc1ccc(-c2csc(NC(=O)c3ccccn3)n2)cc1 [Peptide R805]
OSM-stimulated activation of gp130 Y814 (protein expression of gp130 pY814) (gp130 pY814): prevents Y814 activation in response to IL-6 cytokines; also recorded: selectively inhibited OSM-stimulated activation of Y814 | OSM-stimulated activation of gp130 Y814 (protein expression of gp130 pY814) (gp130 pY814; listed as CX-011): potent inhibitor of OSM-stimulated activation of gp130 Y814 | complex formation between gp130 and pSRC (gp130-SRC interaction) (gp130 and pSRC): able to prevent endogenous interaction of SRC with gp130; also recorded: prevents SRC binding to gp130 | OSM-induced transcription of matrix-degrading genes (ADAMTS4, ADAMTS5, MMP13), qPCR [1]: able to decrease the MMP13 and ADAMTS4/5 gene expression | pSTAT3 downstream of LIF (pSTAT3): minimal inhibitory effect; also recorded: does not affect pro-regenerative signaling downstream of gp130

From patent publication US20240182526A1, “COMPOSITIONS AND METHODS FOR MODULTING INFLAMMATORY AND DEGENERATIVE DISORDER” (University of Southern California, priority 2021, published 2024)
